Test results taken from the supplement of paper PMC4862054.

Columns and labels:
Assay in all cases: normalised response (% of control), CellTiter-Glo; higher = more viable cells (100 = DMSO, 0 = benzethonium chloride kill control)
Conditions in all cases: incubation time: 72 h
Hs578T = tested on: Hs578T
Summary of the method: (§1)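 For each plate, 0.1 % DMSO was set to 100 and a positive kill control to 0. Breast cancer cell lines (20 µl suspension) were seeded into 384-well plates already holding compound at 5 concentrations in 10-fold steps over a 10,000-fold range chosen per compound, and incubated for 72 h. CellTox Green fluorescence at 485/520 nm was read before CellTiter-Glo luminescence, which followed 10 min at room temperature. Each value is the normalised signal at one concentration.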

MDA-MB-468 = tested on: MDA-MB-468
Summary of the method: as §1

MCF-10A = tested on: MCF-10A
Summary of the method: as §1

DU-4475 = tested on: DU-4475
Summary of the method: as §1

CAL-51 = tested on: CAL-51
Summary of the method: as §1

MFM-223 = tested on: MFM-223
Summary of the method: as §1

HCC1599 = tested on: HCC1599
Summary of the method: as §1

MDA-MB-436 = tested on: MDA-MB-436
Summary of the method: as §1

CAL-120 = tested on: CAL-120
Summary of the method: as §1

BT-549 = tested on: BT-549
Summary of the method: as §1

HCC1937 = tested on: HCC1937
Summary of the method: as §1

MDA-MB-453 = tested on: MDA-MB-453
Summary of the method: as §1

CAL-148 = tested on: CAL-148
Summary of the method: as §1

MDA-MB-231 = tested on: MDA-MB-231
Summary of the method: as §1

BT-474 = tested on: BT-474
Summary of the method: as §1

SK-BR-3 = tested on: SK-BR-3
Summary of the method: as §1

HDQ-P1 = tested on: HDQ-P1
Summary of the method: as §1

HCC1143 = tested on: HCC1143
Summary of the method: as §1

CAL-85-1 = tested on: CAL-85-1
Summary of the method: as §1

Row | SMILES | normalised response (Hs578T) [%] | normalised response (MDA-MB-468) [%] | normalised response (MCF-10A) [%] | normalised response (DU-4475) [%] | normalised response (CAL-51) [%] | normalised response (MFM-223) [%] | normalised response (HCC1599) [%] | normalised response (MDA-MB-436) [%] | normalised response (CAL-120) [%] | normalised response (BT-549) [%] | normalised response (HCC1937) [%] | normalised response (MDA-MB-453) [%] | normalised response (CAL-148) [%] | normalised response (MDA-MB-231) [%] | normalised response (BT-474) [%] | normalised response (SK-BR-3) [%] | normalised response (HDQ-P1) [%] | normalised response (HCC1143) [%] | normalised response (CAL-85-1) [%]
1 | CC(C)(C#N)c1cc(Cn2cncn2)cc(C(C)(C)C#N)c1 [Anastrozole] (1 nM) | 99.3 | 102 | 102 | 105 | 89.9 | 106 | 110 | 95.2 | 101 | 109 | 99.7 | 112 | 94.8 | 96.7 | 100 | 111 | 103 | 95.5 | 102
2 | CN1CCN(CCOc2cc(OC3CCOCC3)c3c(Nc4c(Cl)ccc5c4OCO5)ncnc3c2)CC1 [Saracatinib] (1 nM) | 97.4 | 99.2 | 96.5 | 102 | 116 | 97.5 | 116 | 103 | 94.4 | 105 | 95.7 | 103 | 97.9 | 94.6 | 94.4 | 98.6 | 94.5 | 89.2 | 105
3 | CC(C)(C#N)c1cc(Cn2cncn2)cc(C(C)(C)C#N)c1 [Anastrozole] (10 nM) | 105 | 98.8 | 110 | 104 | 93.7 | 104 | 102 | 99.4 | 96.2 | 99 | 100 | 104 | 99.3 | 100 | 101 | 105 | 94.3 | 103 | 94.9
4 | COc1ccccc1S(=O)(=O)Nc1ccc2c(c1)CN(C)C(=O)N2 [PFI-1] (1 nM) | 107 | 90.8 | 112 | 104 | 77.9 | 101 | 80.6 | 94.8 | 100 | 96.5 | 99.2 | 105 | 107 | 103 | 93.7 | 104 | 96 | 94.2 | 98
5 | NS(=O)(=O)OC[C@@H]1C[C@@H](n2ccc3c(N[C@H]4CCc5ccccc54)ncnc32)C[C@@H]1O [Pevonedistat] (1 nM) | 99.7 | 96.7 | 115 | 94.7 | 79.2 | 102 | 95.9 | 99.7 | 100 | 99.2 | 100 | 110 | 106 | 102 | 93.6 | 107 | 100 | 105 | 93.9
6 | CC[C@]1(O)C[C@H]2CN(CCc3c([nH]c4ccccc34)[C@@](C(=O)OC)(c3cc4c(cc3OC)N(C=O)[C@H]3[C@@](O)(C(=O)OC)[C@H](OC(C)=O)[C@]5(CC)C=CCN6CC[C@]43[C@@H]65)C2)C1 [Vincristine] (0.1 nM) | 110 | 112 | 105 | 106 | 88.2 | 102 | 92.7 | 116 | 94.7 | 99.5 | 94.1 | 107 | 109 | 104 | 97.8 | 102 | 99.9 | 103 | 99.1
7 | CC(C)c1c(C(=O)Nc2ccccc2)c(-c2ccccc2)c(-c2ccc(F)cc2)n1CC[C@@H](O)C[C@@H](O)CC(=O)O [Atorvastatin] (1 nM) | 98.9 | 94.2 | 99.1 | 100 | 89.8 | 97.6 | 96.5 | 95.5 | 92.8 | 96.9 | 98.1 | 107 | 103 | 95.2 | 94 | 103 | 95.9 | 98.2 | 98.7
8 | O=C1NC(=O)[C@@H](c2cn3c4c(cccc24)CCC3)[C@@H]1c1c[nH]c2ccccc12 [Tivantinib] (0.1 nM) | 103 | 104 | 101 | 98.8 | 87.5 | 103 | 107 | 106 | 101 | 104 | 95.6 | 92.5 | 101 | 97.8 | 102 | 108 | 101 | 97.9 | 96.2
9 | Cn1cncc1[C@@](N)(c1ccc(Cl)cc1)c1ccc2c(c1)c(-c1cccc(Cl)c1)cc(=O)n2C [Tipifarnib] (10 nM) | 95.8 | 94 | 92.3 | 102 | 121 | 95.2 | 94.3 | 88.7 | 93.1 | 98.9 | 82.3 | 84.6 | 96.7 | 98.6 | 94.4 | 85.1 | 87.7 | 101 | 108
10 | CC(C)c1c(C(=O)Nc2ccccc2)c(-c2ccccc2)c(-c2ccc(F)cc2)n1CC[C@@H](O)C[C@@H](O)CC(=O)O [Atorvastatin] (10 nM) | 101 | 104 | 100 | 98.7 | 76.1 | 102 | 104 | 96.5 | 96.8 | 90 | 99.7 | 104 | 101 | 96.9 | 100 | 102 | 101 | 103 | 98.9
